From the supplement of paper PMC10307832

How the values were obtained:
Assay in all cases: relative viability (nuclei count vs DMSO), 5 days (fraction); higher = more cells survive
[1] = compound: O=C(c1cc(Cc2n[nH]c(=O)c3ccccc23)ccc1F)N1CCN(C(=O)C2CC2)CC1 [Olaparib] + CC(=O)c1c(C)c2cnc(Nc3ccc(N4CCNCC4)cn3)nc2n(C2CCCC2)c1=O [Palbociclib] (partner 0.5 µM)
Summary of the method: (§1)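 Lung cancer cell lines, seeded in 1536-well plates, were treated the following day by pin tool with a single drug or with five library-drug doses (not always all listed) in √10 steps on top of a fixed anchor-drug dose. Cells were fixed and nuclei stained in one step after 5 days, and nuclei were counted. Relative viability is the nuclei count for treated wells divided by that for vehicle wells, reported as medians of duplicate plates.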

[2] = compound: O=C(c1cc(Cc2n[nH]c(=O)c3ccccc23)ccc1F)N1CCN(C(=O)C2CC2)CC1 [Olaparib] + N=C(N)NC(=N)NCCc1ccccc1 [Phenformin] (partner 250 µM)
Summary of the method: as §1

[3] = compound: CC(C)C[C@H](NC(=O)[C@H](CCc1ccccc1)NC(=O)CN1CCOCC1)C(=O)N[C@@H](Cc1ccccc1)C(=O)N[C@@H](CC(C)C)C(=O)[C@@]1(C)CO1 [Carfilzomib] + CC(=O)Nc1cccc(-n2c(=O)n(C3CC3)c(=O)c3c(Nc4ccc(I)cc4F)n(C)c(=O)c(C)c32)c1 [Trametinib] (partner 0.02 µM)
Summary of the method: as §1

[4] = compound: CC(C)C[C@H](NC(=O)[C@H](CCc1ccccc1)NC(=O)CN1CCOCC1)C(=O)N[C@@H](Cc1ccccc1)C(=O)N[C@@H](CC(C)C)C(=O)[C@@]1(C)CO1 [Carfilzomib] + CS(=O)(=O)CCNCc1ccc(-c2ccc3ncnc(Nc4ccc(OCc5cccc(F)c5)c(Cl)c4)c3c2)o1 [Lapatinib] (partner 2 µM)
Summary of the method: as §1

| Cell Line | relative viability ([1]; first compound 0.08 µM) | relative viability ([1]; first compound 0.253 µM) | relative viability ([1]; first compound 2.53 µM) | relative viability ([1]; first compound 8 µM) | relative viability ([2]; first compound 0.08 µM) | relative viability ([2]; first compound 0.253 µM) | relative viability ([2]; first compound 2.53 µM) | relative viability ([2]; first compound 8 µM) | relative viability ([3]; first compound 0.001 µM) | relative viability ([3]; first compound 0.003162 µM) | relative viability ([3]; first compound 0.01 µM) | relative viability ([3]; first compound 0.03162 µM) | relative viability ([3]; first compound 0.1 µM) | relative viability ([4]; first compound 0.001 µM) | relative viability ([4]; first compound 0.003162 µM) | relative viability ([4]; first compound 0.01 µM) | relative viability ([4]; first compound 0.03162 µM) | relative viability ([4]; first compound 0.1 µM) |
| --- | --- | --- | --- | --- | --- | --- | --- | --- | --- | --- | --- | --- | --- | --- | --- | --- | --- | --- |
| EMC-BAC-2 | 0.518 | 0.512 | 0.517 | 0.472 | 0.558 | 0.504 | 0.558 | 0.437 | 0.895 | 0.962 | 1.04 | 0.791 | 0.277 | 0.89 | 0.958 | 0.879 | 0.843 | 0.471 |
| EPLC-272H | 0.427 | 0.298 | 0.339 | 0.318 | 0.389 | 0.298 | 0.289 | 0.338 | 0.281 | 0.303 | 0.286 | 0.0724 | 0.0619 | 0.804 | 1.47 | 1.06 | 0.298 | 0.0991 |
| H3255 | 0.32 | 0.315 | 0.336 | 0.306 | 0.435 | 0.342 | 0.38 | 0.385 | 0.67 | 0.737 | 0.643 |  | 0.24 | 0.252 | 0.338 | 0.259 | 0.225 | 0.296 |
| HARA | 0.216 | 0.268 | 0.271 | 0.276 | 0.584 | 0.398 | 0.36 | 0.36 | 0.66 | 0.693 | 0.627 | 0.339 | 0.109 | 0.817 | 0.911 | 0.882 | 0.0695 | 0.0699 |
| HCC-15 | 0.785 | 0.659 | 0.714 | 0.722 | 0.599 | 0.423 | 0.445 | 0.409 | 0.367 | 0.426 | 0.432 | 0.372 | 0.17 | 0.857 | 0.872 | 0.918 | 0.428 | 0.176 |
| HCC-44 | 0.998 | 0.884 | 0.943 | 0.969 | 0.208 | 0.167 | 0.271 | 0.225 | 0.966 | 1.08 | 1 | 1.07 | 0.77 | 1.07 | 0.985 | 1.16 | 0.878 | 0.245 |
| HCC-78 | 0.414 | 0.424 | 0.486 | 0.464 | 0.72 | 0.66 | 0.756 | 0.714 | 0.672 | 0.849 | 0.69 | 0.597 | 0.255 | 0.791 | 0.701 | 0.9 | 0.165 | 0.142 |
| HCC-366 | 0.39 | 0.263 | 0.26 | 0.168 | 0.768 | 0.583 | 0.489 | 0.413 | 0.345 | 0.388 | 0.405 | 0.293 | 0.0458 | 0.941 | 1.02 | 0.963 | 0.305 | 0.0207 |
| HCC-827 | 0.534 | 0.494 | 0.474 | 0.387 | 0.361 | 0.372 | 0.398 | 0.35 | 0.566 | 0.542 | 0.534 | 0.491 | 0.191 | 0.175 | 0.164 | 0.166 | 0.258 | 0.154 |
| HOP-62 | 0.469 | 0.454 | 0.361 | 0.319 | 0.783 | 0.644 | 0.762 | 0.478 | 0.385 | 0.38 | 0.363 | 0.21 | 0.0811 | 1.16 | 1.21 | 1.06 | 0.308 | 0.0688 |
| LC-2-ad | 0.472 | 0.451 | 0.493 | 0.399 | 0.75 | 0.508 | 0.533 | 0.607 | 0.9 | 0.97 | 0.881 | 0.917 | 0.471 | 0.861 | 1.14 | 0.984 | 0.153 | 0.12 |
| LCLC-97TM1 | 0.24 | 0.226 | 0.206 | 0.166 | 0.439 | 0.414 | 0.428 | 0.429 | 0.19 | 0.21 | 0.227 | 0.0729 | 0.0639 | 0.73 | 1.58 | 0.957 | 0.282 | 0.142 |
| LK-2 | 0.697 | 0.723 | 0.888 | 0.697 | 0.661 | 0.381 | 0.77 | 0.317 | 0.713 | 0.973 | 0.747 | 0.172 | 0.2 | 0.673 | 1.19 | 0.72 | 0.226 | 0.217 |
| LOU-NH91 | 0.55 | 0.538 | 0.526 | 0.533 | 0.885 | 0.663 | 0.716 | 0.769 | 0.831 | 0.81 | 0.818 | 0.389 | 0.33 | 0.767 | 0.783 | 0.607 | 0.309 | 0.288 |
| LU99A | 0.45 | 0.392 | 0.31 | 0.323 | 0.853 | 0.777 | 0.666 | 0.556 | 0.525 | 0.588 | 0.541 | 0.417 | 0.284 | 1 | 1.03 | 0.972 | 0.521 | 0.2 |
| LXF-289 | 0.635 | 0.6 | 0.684 | 0.689 | 0.555 | 0.477 | 0.547 | 0.526 | 0.705 | 0.742 | 0.679 | 0.163 | 0.107 | 0.921 | 0.942 | 0.917 | 0.0958 | 0.101 |
| NCI-H23 | 0.586 | 0.542 | 0.475 | 0.5 | 0.841 | 0.714 | 0.724 | 0.609 | 0.39 | 0.328 | 0.428 | 0.238 | 0.0981 | 1.01 | 1.09 | 0.723 | 0.171 | 0.142 |
